Reference: US20110081428A1, “Use of thioflavin-like compounds to increase life span and/or health span” (priority 2009, published 2011)

Experiments:
Format in all cases: in vivo, Caenorhabditis elegans
[1] = system: UNC-52 (perlecan) in HE250; experiment: Perlecan immunolocalization; conditions: HE250, 50 μM ThT, 24 h at 25° C.
Experimental: (§1) For fluorescent microscopy, TJ356 zIs356 IV [daf-16::daf-16-gfp+rol-6] or CF2189 Is001(skn-1::gfp+rol-6) were paralyzed with 1 mM levamisole mounted on 1% agarose pads and imaged using Olympus BX51 (60× objective) and HCImage software (Hamamatsu). For immunofluorescence, N2, […], CB1157 unc-54(e1157) or CL4176 dvIs27 [myo-3::Aβ(3 to 42)-let 3′UTR(pAF29); pRF4 (rol-6(su1006))] worms were treated for 24-36 h with or without 50 μM ThT at 25° C. After this period the worms were collected, rinsed, and fixed in 4% paraformaldehyde overnight. […] Paramyosin and perlecans were detected with primary monoclonal antibodies 5-23 and MH3 (developed by Henry Epstein and Robert H. Waterston and obtained from the Developmental Studies Hybridoma Bank developed under the auspices of the NICHD and maintained by The University of Iowa, Department of Biology, Iowa City, Iowa 52242) and AlexaFluor 633 goat anti-mouse (Molecular Probes) as secondary antibody. Soluble oligomers and Aβ peptide were detected with anti polyclonal All (Invitrogen) and 6E10 monoclonal (Covance) primary antibodies, respectively, with AlexaFluor 568 goat anti-rabbit and AlexaFluor 488 goat anti-mouse (Molecular Probes) as secondary antibodies. Images were processed and quantified by using Image Analyst MK II (Novato, Calif.).

HSF-1 RNA = experiment: Real time quantitative PCR, hsf-1; conditions: 50 μM ThT, 3, 6 and 12 days of treatment
Experimental: Twelve single adults from control or 50 μM ThT populations were picked after 3, 6 and 12 days of treatment into 5 μl of distilled water and flash frozen until extraction. Individual worms were extracted using the RNeasy Micro Kit, TissueLyser and QIAcube (Qiagen). Using the manufacturer's standard Animal Tissue protocol, each sample was homogenized in buffer RLT/Bme (Qiagen) on the TissueLyser (6 min total at 20 Hz). Samples, reagents and columns were then loaded into the QIAcube robot, and processed using the “RNeasy Micro—Animal tissues and cells—DNase digest” program. Each sample was then eluted in 14 μl of Nuclease-free water. cDNA templates for the Real Time PCR reactions were made using a combination of Message Sensor RT kit (Ambion's) and TaqMan PreAmp Master Mix (Applied Biosystems). The entire worm sample was added to the RT reaction and reversed transcribed at 50° C. for 20 min, using Message Sensor's “Two Step RT-PCR Protocol” (sample RT's were randomized). Then 2.5 μl of the cDNA sample was pre-amplified with a “4×Multiplex Primer Mix” for 14 cycles using TaqMan PreAmp master mix and protocol (ABI). Two modifications were made to ABI's protocol: 1. the reaction volume was reduced to 10 μl and 2. after pre-amplification, each cDNA sample was diluted 1:5 with 1XTE Buffer (Promega). cDNA samples were stored at −20° C. until needed. […]

[2] = system: SKN-1 fusion protein [CF2189 (skn-1::GFP)]; experiment: SKN-1::GFP localization; conditions: ThT treatment
Experimental: as §1

[3] = system: HE250 [unc-52(e669su250)II]; experiment: RNAi knockdown of proteostasis factors with paralysis scoring; conditions: HE250, 50 μM ThT
Experimental: RNAi bacterial strains expressing double-stranded RNA that inactivates specified genes were cultured and utilized as previously described. (Timmons, L., Court, D. L. & Fire, A. Ingestion of bacterially expressed dsRNAs can produce specific and potent genetic interference in Caenorhabditis elegans. Gene 263, 103-112 (2001).) Briefly, eggs isolated from synchronous populations of unc-52(e669su250) cultures were placed on fresh RNAi plates and allowed to grow at 15° C.; 3 days later, L4 molt animals were transferred to new plates seeded with the same bacteria in presence or absence of ThT and switched to 25° C. The cultures were scored for paralysis after 48 h of treatment as described above. In all cases, 1 mM isopropyl-beta-D-thiogalactopyranoside (IPTG) was used for induction of double stranded RNA. In all the cases the identity of the clones was confirmed by sequencing.

CW152 gas-1(fc21) X = experiment: Ethanol sensitivity of gas-1 ts mutant; conditions: 0.4 M EtOH, after 3 days of treatment
Experimental: Scoring for paralysis was initiated 2 and 8 days after temperature upshift for CL4176 and AM140, respectively. […] For sensitivity to EtOH or levamisole resistance, CW152 gas-1 (fc21) X and ZZ26 unc-63(x26)I worms were picked into 0.4 M EtOH or 50 μM levamisole, respectively, equilibrated for 5 min, and scored for paralysis as described above. Treated and untreated worms were compared with an unpaired t-test (implemented in Prism 4, Graphpad™ Software, Inc., San Diego, Calif., USA).

Cc1ccc2c(c1)sc(-c1ccc(N(C)C)cc1)[n+]2C.[Cl-] [ThT, 4-(3,6-dimethyl-1,3-benzothiazol-3-ium-2-yl)-N,N-dimethylaniline chloride]
perlecan organization [1]: restored perlecan organization
HSF-1 RNA levels (HSF-1 RNA): no changes were detected
SKN-1::GFP nuclear accumulation [2]: no nuclear accumulation
ThT protection from paralysis with RNAi of proteasome and autophagy genes ([3]; RNAi aip-1, atg-9, vps-34): required for the beneficial effects of ThT
ThT protection from paralysis with RNAi of acute stress genes ([3]; RNAi hsp-16.2, hsp-16.41): decreased
ThT suppression of paralysis with daf-16 RNAi ([3]; daf-16 (RNAi)): potentiated
ThT effect on paralysis with lmp-2 RNAi ([3]; lmp-2(RNAi)): significantly improved the ThT effect on paralysis
ThT effect on paralysis with skn-1 RNAi ([3]; skn-1 (RNAi)): required for ThT effect on the paralysis phenotype
ethanol sensitivity (CW152 gas-1(fc21) X): decreases the ethanol sensitivity
